Assay results from ChEMBL document CHEMBL1201862, “PubChem BioAssay data set” (2004).
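Exposure lasted 48 hours, with cells grown in 96-well plates and compounds tested at five concentrations. GI50 is the concentration that inhibits growth by half.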 Calls of active or inactive are those of the source. Cut-off read from the data, not from the text of the source: active = GI50 up to about 1.1 µM and inactive = higher.

How the values were obtained:
Assay in all cases: inhibition of tumour cell growth, NCI panel, 48 h
[1] = test system: SK-MEL-2
[2] = test system: 786-0
[3] = test system: TK-10
[4] = test system: Malme-3M
[5] = test system: SW-620
[6] = test system: UO-31
[7] = test system: OVCAR-8
[8] = test system: MDA-N
[9] = test system: LOX IMVI
[10] = test system: NCI-H460
[11] = test system: SN12C
[12] = test system: HCT-116
[13] = test system: UACC-257
[14] = test system: ACHN
[15] = test system: CAKI-1
[16] = test system: MDA-MB-231
[17] = test system: U-251
[18] = test system: MCF7
[19] = test system: SNB-75
[20] = test system: SF-295
[21] = test system: SK-MEL-5
[22] = test system: SR
[23] = test system: KM12
[24] = test system: NCI-H23
[25] = test system: MDA-MB-435
[26] = test system: NCI/ADR-RES
[27] = test system: HOP-92
[28] = test system: OVCAR-3
[29] = test system: HCC 2998
[30] = test system: IGROV-1
[31] = test system: PC-3
[32] = test system: COLO 205
[33] = test system: SF-268
[34] = test system: EKVX
[35] = test system: SK-MEL-28
[36] = test system: A498
[37] = test system: A549
[38] = test system: HCT-15
[39] = test system: RXF 393
[40] = test system: CCRF-CEM
[41] = test system: M14
[42] = test system: NCI-H522
[43] = test system: SF-539
[44] = test system: K562
[45] = test system: HOP-62
[46] = test system: Hs-578T
[47] = test system: MOLT-4
[48] = test system: OVCAR-4
[49] = test system: HT-29
[50] = test system: OVCAR-5
[51] = test system: SK-OV-3
[52] = test system: NCI-H226
[53] = test system: RPMI-8226
[54] = test system: SNB-19
[55] = test system: T47D
[56] = test system: DU-145
[57] = test system: HL-60
[58] = test system: UACC-62

Measured: GI50

Cc1ccc2c(c1)CC1(C2)Cc2ccc(C)cc2C1=O (configuration not stated)
inactive: [1] 19.9 µM | [2] 16.8 µM | [3] 31.2 µM | [4] 12.5 µM | [5] 30.6 µM | [6] 27.5 µM | [7] 36.5 µM | [8] 7.35 µM | [9] 20.1 µM | [10] 23.3 µM | [11] 24.8 µM | [12] 21.2 µM | [13] 18.9 µM | [14] 27.7 µM | [15] 18.5 µM | [16] 21.5 µM | [17] 37 µM | [18] 24.7 µM | [19] 18.2 µM | [20] 45.9 µM | [21] 13 µM | [22] 12.6 µM | [23] 23.5 µM | [24] 36.5 µM | [25] 11.4 µM | [26] 15.9 µM | [27] 19.5 µM | [28] 23.9 µM | [29] 25.9 µM | [30] 36 µM | [31] 27.9 µM | [32] 15.4 µM | [33] 32 µM | [34] 32.2 µM | [35] 42 µM | [36] 36.9 µM | [37] 33.3 µM | [39] 17.9 µM | [40] 22.1 µM | [41] 20.2 µM | [42] 19.9 µM | [43] 26.2 µM | [44] 22.8 µM | [45] 28 µM | [46] 20.7 µM | [47] 14.9 µM | [48] 46.5 µM | [49] 18.7 µM | [50] 43.9 µM | [51] 59.3 µM | [52] 11.5 µM | [53] 22.3 µM | [54] 61.4 µM | [55] 59.6 µM | [56] 31.9 µM | [57] 19 µM
15.6 µM: [38]

O=C1c2n[nH]nc2C(=O)c2n[nH]nc21
inactive: [1] > 100 µM | [2] > 100 µM | [3] > 100 µM | [5] > 100 µM | [6] > 100 µM | [7] > 100 µM | [8] > 100 µM | [9] > 100 µM | [10] > 100 µM | [11] > 100 µM | [12] > 100 µM | [13] > 100 µM | [14] > 100 µM | [15] > 100 µM | [16] > 100 µM | [17] > 100 µM | [18] > 100 µM | [19] > 100 µM | [58] > 100 µM | [20] > 100 µM | [21] > 100 µM | [22] > 100 µM | [23] > 100 µM | [24] > 100 µM | [25] > 100 µM | [26] > 100 µM | [27] > 100 µM | [28] > 100 µM | [29] > 100 µM | [30] > 66.4 µM | [31] > 100 µM | [32] > 100 µM | [33] > 100 µM | [34] > 100 µM | [35] > 100 µM | [36] > 100 µM | [37] > 100 µM | [39] > 100 µM | [40] > 100 µM | [41] > 100 µM | [42] > 100 µM | [43] > 100 µM | [44] > 100 µM | [45] > 100 µM | [46] > 100 µM | [47] > 100 µM | [48] > 100 µM | [49] > 100 µM | [50] > 100 µM | [51] > 100 µM | [52] > 39.2 µM | [53] > 100 µM | [54] > 100 µM | [55] > 100 µM | [56] > 100 µM | [57] > 100 µM
> 100 µM: [38]

O=C1OC[C@@H]2Cc3c([nH]c4ccccc34)[C@@H](c3ccc(O)cc3)N12
inactive: [1] 22 µM | [2] 33.9 µM | [3] 34.7 µM | [4] 27.2 µM | [5] 54.1 µM | [6] 30.6 µM | [7] 30.1 µM | [8] 33 µM | [9] 21 µM | [10] 28.7 µM | [11] 41.1 µM | [12] 18.7 µM | [13] 29.9 µM | [14] 23.7 µM | [15] 42.8 µM | [16] 29.6 µM | [17] 39.2 µM | [18] 36.6 µM | [19] 17 µM | [58] 29.9 µM | [20] 26.4 µM | [21] 17.2 µM | [22] 39.1 µM | [23] 22.8 µM | [24] 19.3 µM | [25] 24.7 µM | [26] 34.7 µM | [27] 96.8 µM | [28] 17.4 µM | [29] 38.4 µM | [30] 24.8 µM | [31] 24 µM | [32] 22.4 µM | [33] 42.6 µM | [34] 36.3 µM | [35] 54.6 µM | [36] 41.7 µM | [37] 26.8 µM | [39] 17.3 µM | [40] 30.1 µM | [41] 23.1 µM | [42] 29.3 µM | [43] 24.4 µM | [44] 32.1 µM | [45] 35.6 µM | [46] 88.3 µM | [47] 31.3 µM | [48] 32.4 µM | [49] 34.9 µM | [50] 39.4 µM | [51] > 56.8 µM | [52] 29 µM | [53] 35.8 µM | [54] 54.2 µM | [55] 51.5 µM | [56] 40.3 µM | [57] 45 µM
37.8 µM: [38]
